Experiments:
[1] = tested on: Phakopsora pachyrhizi (F129L); experiment: Protective control of soybean rust on soybeans (PHAKPA P2); type: in vivo; details: P2 protective, 16 ppm, % diseased leaf area
[2] = tested on: Phakopsora pachyrhizi (F129L); experiment: Protective control of soybean rust on soybeans (PHAKPA P6); type: in vivo; details: P6 protective, 16 ppm, % diseased leaf area

SMILES	PHAKPA (F129L) Disease level (%) P2 at 16 ppm [1] [%]	PHAKPA (F129L) Disease level (%) P6 at 16 ppm [2] [%]
CNC(=O)/C(=N/OC)c1ccccc1CO/N=C(/c1ccc(F)cc1)C(F)F [reference compound]	15	15
CNC(=O)/C(=N/OC)c1ccccc1CO/N=C(\C)c1cccc(N2CC(F)(F)C2)c1 [reference compound]	70	53
CNC(=O)/C(=N/OC)c1ccccc1CO/N=C(\C)c1cccc(-c2noc(C(F)(F)F)n2)c1 [reference compound]	23	32
CO/N=C(/C(=O)OC)c1ccccc1CO/N=C(\C)c1cc(Cl)cc(Cl)c1 [reference compound]	27	17
CO/N=C(/C(=O)OC)c1ccccc1CO/N=C(\C)c1cccc(Br)c1 [reference compound]	80	87
CO/N=C(/C(=O)OC)c1ccccc1CO/N=C(\C)c1ccccc1C(F)(F)F [reference compound]	87	90
CO/N=C(/C(=O)OC)c1ccccc1CO/N=C(\C)c1ccc(C)cc1 [reference compound]	25	10
CO/N=C(/C(=O)OC)c1ccccc1CO/N=C(\C)c1ccc(OC)cc1 [reference compound]	67	33
CO/N=C(/C(=O)OC)c1ccccc1CO/N=C(\C)c1ccccc1F [reference compound]	83	77
CO/N=C(/C(=O)OC)c1ccccc1CO/N=C(\C)c1ccc(C(F)(F)F)cc1 [reference compound]	43	13
CO/N=C(/C(=O)OC)c1ccccc1CO/N=C(\C)c1ccccc1 [reference compound]	87	43
CO/N=C(\C)c1ccc(/C(C)=N/OCc2ccccc2/C(=N\OC)C(=O)OC)cc1 [reference compound]	57	60
CO/N=C(/C(=O)OC)c1ccccc1CO/N=C(\C)c1ccc(C#N)cc1 [reference compound]	87	53
CO/N=C(/C(=O)OC)c1ccccc1CO/N=C(/c1ccc(Cl)cc1)C(F)F [reference compound]	100	90
CO/N=C(/C(=O)OC)c1ccccc1CO/N=C(\C)c1ccc(Cl)cc1 [reference compound]	63	43
CO/N=C(/C(=O)OC)c1ccccc1CO/N=C(\C)c1cccc(C)c1 [reference compound]	93	83
CO/N=C(/C(=O)OC)c1ccccc1CO/N=C(\C)c1cccc(F)c1 [reference compound]	90	80
CO/N=C(/C(=O)OC)c1ccccc1CO/N=C(\C)c1cccc(Cl)c1 [reference compound]	73	70
CO/N=C(/C(=O)OC)c1ccccc1CO/N=C(\C)c1cccc(C#N)c1 [reference compound]	80	43
CO/C=C(/C(=O)OC)c1ccccc1CO/N=C(\C)c1ccccc1C(F)(F)F [reference compound]	11	9
CO/N=C(/C(=O)OC)c1ccccc1CO/N=C(\C)c1cc(F)ccc1F [reference compound]	1	22
